Test results from patent USRE40387E1, “Pharmaceutical compositions, dosage forms and methods for oral administration of epothilones” (Bristol-Myers Squibb Company, priority 2001, dated 2008).

Tests used:
[1] = Stability of aqueous solution of Compound (A) (t95); type: physicochemical; conditions: 37° C.
Procedure: Certain epothilones including the preferred epothilone, Compound (A), are unstable in acidic aqueous environments and decompose, presumably by an acid catalyzed hydrolytic opening of the epoxide ring. For example, the time for 5% drug loss (t95) at 37° C. for an aqueous solution of Compound (A) is approximately 38 minutes at pH 7.4 but only about 0.2 minutes at pH 2.5. Thus, when epothilones of Formula (Ia) or (Ib), or a pharmaceutically acceptable salt, solvate, clathrate, hydrate, or prodrug thereof, are orally administered they decompose in the stomach of the patient such that they are either minimally absorbed or not absorbed by the gastrointestinal tract.

[2] = Pharmacokinetics in mice (IV and oral); type: in vivo, female CDF
Procedure: (§1) Plasma samples from pharmacokinetic/pharmacodynamic studies were analyzed for the concentration of Compound (A) using an LC/MS/MS (liquid chromatography/mass spectrometry/mass spectrometry) assay with a standard curve range of 5 to 20,000 ng/mL (10 to 40,000 nM) for studies in mice and 2 to 1000 ng/mL (4 to 2000 nM) for studies in rats and dogs. In pharmacodynamic studies, concentrations of Compound (A) were determined using the LC/MS/MS assay with a standard curve range of 5 to 20,000 ng/mL (10 to 40,000 nM) in mouse plasma. The LC/MS/MS assay was also used to determine the concentrations of Compound (B), a degradation product of Compound (A) formed in the stock/dosing solution or in vivo, in rat and dog plasma. The structure of Compound (B) is: [drawing 9]
Compound (A) was administered intravenously (5 mg/kg) and orally (48 mg/kg) to female CDF, mice. For the IV route, Compound (A) was dissolved in 20% ethanol solution and was given as a bolus dose. For the oral route, solutions of Compound (A) were prepared as a 3:7 mixture of ethanol:phosphate buffered saline (0.25 M, pH 8.0) and administered by gavage. Plasma samples for determinating concentrations of Compound (A) were taken from 3 separate mice at 5, 15, and 45 min, and 2, 4, and 6 h after the IV dose, and at 15 and 45 min, and 2, 4, and 6 h after the oral dose.

[3] = Pharmacokinetics in dogs, 10 min IV infusion; type: in vivo, male beagle dogs
Procedure: as §1
Male beagle dogs (n=3) were administered a 10 min IV infusion of 0.5 mg/kg of Compound (A) (given as a 10% ethanol solution). Plasma samples were taken over a period of 32 h after dose to determine the plasma concentrations of Compound (A). […] The T-HALF was estimated to be approximately 24 h.

[4] = tested on: mouse liver microsomes; experiment: Oxidative metabolism in mouse liver microsomes; type: in vitro ADME; conditions: 40 :M, NADPH
Procedure: (§2) Upon incubation of Compound (A) (40 :M) with mouse, rat, dog, and human liver microsomes fortified with nicotinamide adenine dinucleotide phosphate (NADPH), the rate of oxidative metabolism of Compound (A) was 2.1, 0.7, 1.2 and 1.3 nmol/min/mg protein, respectively. Moreover, the metabolite distribution was similar among all species (metabolite masses included several […] and M−2 compounds). Qualitatively, there appeared to be similar production of metabolites of Compound (A) after incubation with rat or human hepatocytes compared to microsomal incubations. Products similar to those arising from the chemical degradation of Compound (A) appeared to be the major products in the hepatocyte incubations.

[5] = tested on: rat liver microsomes; experiment: Oxidative metabolism in rat liver microsomes; type: in vitro ADME; conditions: 40 :M, NADPH
Procedure: as §2

[6] = tested on: dog liver microsomes; experiment: Oxidative metabolism in dog liver microsomes; type: in vitro ADME; conditions: 40 :M, NADPH
Procedure: as §2

[7] = tested on: human liver microsomes; experiment: Oxidative metabolism in human liver microsomes; type: in vitro ADME; conditions: 40 :M, NADPH
Procedure: as §2

[8] = target: T1, CYP1A2 (Homo sapiens, UniProt P05177); experiment: Inhibition of recombinant human CYP1A2 (deethylation of 3-cyano-7-ethoxycoumarin); type: in vitro ADME; conditions: recombinant human CYP isoform
T1 sequence (P05177 1-516): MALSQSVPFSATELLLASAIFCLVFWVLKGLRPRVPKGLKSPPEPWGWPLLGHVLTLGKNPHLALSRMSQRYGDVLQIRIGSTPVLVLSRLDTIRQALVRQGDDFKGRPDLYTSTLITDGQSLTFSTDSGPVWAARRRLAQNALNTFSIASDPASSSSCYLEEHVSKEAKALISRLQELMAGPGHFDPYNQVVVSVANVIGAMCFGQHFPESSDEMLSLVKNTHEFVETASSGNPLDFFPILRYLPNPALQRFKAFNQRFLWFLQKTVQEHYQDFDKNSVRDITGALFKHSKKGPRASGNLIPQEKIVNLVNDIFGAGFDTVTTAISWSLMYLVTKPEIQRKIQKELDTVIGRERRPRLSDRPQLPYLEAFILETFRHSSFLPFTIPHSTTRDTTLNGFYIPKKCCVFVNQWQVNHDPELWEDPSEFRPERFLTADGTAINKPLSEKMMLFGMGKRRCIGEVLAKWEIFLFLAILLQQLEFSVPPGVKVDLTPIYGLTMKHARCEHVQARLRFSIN
Procedure: (§3) The ability of Compound (A) to inhibit the major human cytochrome P450s (CYPs) responsible for the metabolism of drugs was evaluated in vitro using recombinant human CYP isoforms. IC50 values for inhibition of deethylation of 3-cyano-7-ethoxycoumarin (CYP1A2, CYP2C9, CYP2C19, and CYP2D6) and for inhibition of dealkylation of benzoyl-resorufin (CYP3A4) were determined.

[9] = target: CYP2C19 (Homo sapiens, UniProt P33261); experiment: Inhibition of recombinant human CYP2C19 (deethylation of 3-cyano-7-ethoxycoumarin); type: in vitro ADME; conditions: recombinant human CYP isoform
Procedure: as §3

[10] = tested on: Caco-2 cell culture system; experiment: Caco-2 cell permeability
Procedure: The Pc of some model compounds, for which the bioavailability in humans is known, was also determined in the same experiment.

[11] = Single dose oral toxicity study in dogs; type: in vivo; conditions: oral solution 0.4 mL/kg
Procedure: The mean (SD) [n=3] […] Although the oral formulation for both studies was identical, the total volume of the oral solution administered in the current study was about 1.3 mL/kg while that in the toxicology study was 0.4 mL/kg. […] Compound (A) is an acid labile drug, thus, the higher exposure after oral solution in the current study compared to the toxicology study is likely related to better protection from gastric acid degradation.

Chain of CYP2C19 (P33261 whole entry, canonical isoform): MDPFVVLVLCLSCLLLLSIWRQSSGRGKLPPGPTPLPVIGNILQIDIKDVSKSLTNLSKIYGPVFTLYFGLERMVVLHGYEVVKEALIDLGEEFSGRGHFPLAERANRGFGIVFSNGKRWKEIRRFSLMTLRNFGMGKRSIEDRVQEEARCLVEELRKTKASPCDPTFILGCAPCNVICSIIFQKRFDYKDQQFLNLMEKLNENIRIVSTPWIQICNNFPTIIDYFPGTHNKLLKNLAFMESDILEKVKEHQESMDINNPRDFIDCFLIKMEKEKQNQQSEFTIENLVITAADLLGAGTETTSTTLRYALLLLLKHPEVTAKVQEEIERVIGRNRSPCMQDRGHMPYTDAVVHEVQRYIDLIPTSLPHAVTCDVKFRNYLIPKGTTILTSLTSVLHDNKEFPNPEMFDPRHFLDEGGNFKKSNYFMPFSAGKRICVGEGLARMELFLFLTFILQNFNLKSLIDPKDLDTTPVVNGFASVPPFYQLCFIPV

Structure (SMILES): C/C(=C\c1csc(C)n1)[C@@H]1C[C@@H]2O[C@]2(C)CCC[C@H](C)[C@H](O)[C@@H](C)C(=O)C(C)(C)[C@@H](O)CC(=O)N1 (relative stereo) [Compound (A), [1S-[1R*,3R*(E),7R*,10S*,11R*,12R*,16S*]]-7,11-dihydroxy 8,8,10,12,16-pentamethyl-3-[1-methyl-2-(2-methyl-4-thiazolyl)ethenyl-4-aza-17-oxobicyclo[14.1.0]heptadecane-5,9-dione]
- time for 5% drug loss (t95) ([1]; pH 2.5): about 0.2 minutes
- time for 5% drug loss (t95) ([1]; pH 7.4): approximately 38 minutes
- steady-state volume of distribution (VSS) ([2]; IV 5 mg/kg): 6.3 L/kg
- terminal elimination half-life (T-HALF) ([2]; IV 5 mg/kg): approximately 3 h
- CLT as percent of liver blood flow ([2]; IV 5 mg/kg, liver blood flow 90 mL/min/kg): 76%
- systemic clearance or total body clearance (CLT) ([2]; IV bolus 5 mg/kg): 68 mL/min/kg
- absolute oral bioavailability ([2]; oral 48 mg/kg vs IV 5 mg/kg): 31%
- peak plasma concentration (CMAX) ([2]; oral 48 mg/kg, ethanol:phosphate buffered saline 3:7): 5983 ng/mL
- CLT (mean) ([3]; 10 min IV infusion 0.5 mg/kg): 17.3 mL/min/kg
- T-HALF ([3]; IV 0.5 mg/kg): approximately 24 h
- mean VSS ([3]; IV 0.5 mg/kg): 25.2 L/kg
- CLT as percent of liver blood flow ([3]; IV 0.5 mg/kg, liver blood flow 30.9 mL/min/kg): about 56%
- AUC, mean (SD) ([3]; preliminary IV pharmacokinetic study, 0.5 mg/kg): 483 (34) h.ng/mL
- rate of oxidative metabolism [4]: 2.1 nmol/min/mg protein
- rate of oxidative metabolism [5]: 0.7 nmol/min/mg protein
- rate of oxidative metabolism [6]: 1.2 nmol/min/mg protein
- rate of oxidative metabolism [7]: 1.3 nmol/min/mg protein
- inhibition of CYP1A2 [8]: did not inhibit
- inhibition of CYP2C19 [9]: did not inhibit
- permeability coefficient (Pc) ([10]; Caco-2, 10 pM (Ca 5 pg/mL)): 9.4 ×10⁻⁶ cm/s
- permeability coefficient (Pc) ([10]; Caco-2, 30 pM (Ca 15 pg/mL)): 10.5 ×10⁻⁶ cm/s
- permeability coefficient (Pc) ([10]; Caco-2, 100 pM (Ca 50 pg/mL)): 12.8 ×10⁻⁶ cm/s
- dose-normalized mean AUC [11]: 257 ng·h/mL
